From US20240158425A1, “MODIFIED ADENINES” (NUCLERA LTD, priority 2021, published 2024) come the findings set out here.

What all share (assay type): physicochemical
A short description of data set [1]: Stability of 2-halogenated 2′-deoxyadenosines and 2′-deoxyadenosine in NDS buffer (sodium nitrite, pH 5.5), LC/MS. To be noted: for Reaction in NDS buffer (products formed; deaminated nucleoside): LC/MS. The protocol:
(§1) Analytical LC/MS was performed on the Agilent 1100 Series system. Nucleosides were analysed using gradient of acetonitrile in 20 mM NH4OAc, pH 4.5. The 1 M stock solution of NH4OAc, pH 4.5 was prepared by dissolving NH4OAc (g) in H2O and adjusted to pH 4.5 with acetic acid. This was further diluted with water to the concentrations required for the chromatography.
(§2) Column: Ascentis Express C18 15×4.6 mm, 5 μm; Column temperature 30° C., Flow rate 1 mL/min, UV detection 254 nm.
2 M sodium acetate pH 5.5 buffer was made from sodium acetate trihydrate (2.72 g) made up to 9.5 mL with water, then titrated to pH 5.5 with acetic acid, and finally made up to 10 mL. NDS buffer was made from acetate solution (3.934 mL), sodium nitrite (380 mg, 5.5 mmol) and water (3.934 mL), then adjusted to pH 5.5 with 10 M sodium hydroxide (˜1 drop required). 2-chloro-2′-deoxyadenosine (0.5 mg), 2-fluoro-2′-deoxyadenosine (0.5 mg) and 2′-deoxyadenosine (0.5 mg) as a control were respectively placed in three vials and each dissolved in 1 mL solution of NDS buffer. The stability was monitored at intervals using LC/MS.

Data set [2] in a line: Stability in Oxime Removal Solution (1×ORS) buffer, monitored by LC/MS. To be noted: 1×ORS buffer (methoxyamine), 24 h at 37 deg C. The protocol: as §1, §2
Stock solution of ORS buffer (2×) was prepared from methoxyamine hydrochloride (60 mg, 0.71 mmol), water (MilliQ) (200 uL), pH 5.5 sodium acetate (200 uL) and 10 M sodium hydroxide (53.4 uL) and water (1.4 mL). 2-chloro-2′-deoxyadenosine (1 mg) was dissolved in milliQ water (0.5 mL) and 2×ORS (0.5 mL) was added. The resultant solution was incubated at 37 deg C. and the stability was monitored at intervals using LC/MS. […] 2. Stability of 2-fluoro-2′-deoxyadenosine in ORS Buffer
2-fluoro-2′-deoxyadenosine (1 mg) was dissolved in milliQ water (0.5 mL) and 2×ORS (0.5 mL) was added. The resultant solution was incubated at 37 deg C. and the stability was monitored at intervals using LC/MS.

Data set [3] in a line: Stability of 8-aza-adenosine and 2′-deoxyadenosine in NDS buffer, LC/MS. The note with it: for Reaction in NDS buffer (products formed; deaminated nucleoside): LC/MS. The protocol:
A solution of NDS made up from sodium nitrite, sodium acetate pH 5.5) and titrated to pH 5.5 with 10 M NaOH was obtained (2 mL).
1 mL aliquots of this solution were added to 8-aza-2′-dA (0.5 mg) and 2′-dA (0.5 mg, as a control to compare how additional N atom at 8 position of nucleobase affects reactivity NH2—C6 group with NDS) and analysed at intervals using LC/MS.

Setting [4] is: buffer, 24 h, 0.5 mg/mL, pH 5.5.
Setting [5] is: buffer, 48 h, 0.5 mg/mL, pH 5.5.
The mark [6] stands for this setting: buffer, 120 h, 0.5 mg/mL, pH 5.5.

Consider `Nc1nc(Cl)nc2c1ncn2[C@H]1C[C@H](O)[C@@H](CO)O1` [2-Cl-dA, 2-chloro-2′-deoxyadenosine], for which the “In (remaining nucleoside)” value in data set [1] (NDS buffer, 24 h) is on record as 4.599; in data set [1] (NDS buffer, 48 h), 4.592; in data set [1] (NDS buffer, 120 h), 4.57. For the same compound, the Remaining nucleoside in data set [1] (NDS buffer, 24 h) was 99.42%; in data set [1] (NDS buffer, 48 h), 98.66%; in data set [1] (NDS buffer, 120 h), 96.54%. Further, in data set [1] (NDS buffer), the “Reaction in NDS buffer (products formed; deaminated nucleoside)” value (shortened to “Reaction in NDS buffer”) is recorded as “react in the NDS buffer giving rise to 1 product”. In addition, the “Deamination in NDS buffer, times slower than 2′-dA” value in data set [1] (NDS buffer, same conditions as 2′-dA) is recorded as 5.5 ×. Besides, the “Stability in 1×ORS buffer (formation of products)” value in data set [2] is on record as “did not lead to any products”.

On to `Nc1ncnc2c1nnn2[C@@H]1O[C@H](CO)[C@@H](O)[C@H]1O` [8-aza-A, 8-aza-adenosine], for which the “In (nucleoside peak area %)” value in data set [3] (24 h) amounted to 4.592; in data set [3] (96 h), 4.538; in data set [3] (120 h), 4.519; in data set [3] (146 h), 4.5. The “Remaining nucleoside, peak area %” value in data set [3] (24 h) amounted to 98.65 peak area %; in data set [3] (96 h), 93.49 peak area %; in data set [3] (120 h) it was 91.74 peak area %; in data set [3] (146 h), 90 peak area %. For the same compound, the “Reaction in NDS buffer” value in data set [3] is “react in the NDS buffer giving rise to 1 product”. The “Deamination in NDS buffer, times slower than 2′-dA” value in data set [3] (same conditions as 2′-dA) was 3.2 ×.

As to `Nc1ncnc2c1ncn2[C@H]1C[C@H](O)[C@@H](CO)O1` [dA, 2′-deoxyadenosine], the “In (nucleoside peak area %)” value is reported as 4.545 in data set [3] (24 h), 4.352 in data set [3] (96 h), 4.29 in data set [3] (120 h) and 4.248 in data set [3] (146 h). Further, the “Remaining nucleoside, peak area %” value worked out at 94.15 peak area % in data set [3] (24 h), 77.6 peak area % in data set [3] (96 h), 73 peak area % in data set [3] (120 h) and 70 peak area % in data set [3] (146 h). The “Reaction in NDS buffer” value in data set [3] and in data set [1] (NDS buffer) was “react in the NDS buffer giving rise to 1 product” each time. The “In (remaining nucleoside)” value in data set [1] (setting [4]) was found to be 4.571; in data set [1] (setting [5]), 4.531; in data set [1] (setting [6]), 4.416. Besides, the Remaining nucleoside stood at 96.66% in data set [1] (setting [4]), 92.85% in data set [1] (setting [5]) and 82.77% in data set [1] (setting [6]).
